Patent publication US10258036B2, “Extract of Euodia suaveolens Scheff, repellent compositions and use thereof” (CHARABOT, priority 2009, dated 2019)

How the values were obtained:
[1] = in vivo; cited from earlier work
Aedes aegypti [2] = settings: DEET at a dose of 23.8 percent, laboratory; cited from earlier work
Aedes aegypti [3] = experiment: Repellent efficacy test on hairless mouse coated with test product, exposed to female mosquitoes; assay type: in vivo; settings: concentration of 3% or even less of synthetic evodone
Method: In this respect, the invention is illustrated by the following efficacy tests, carried out in the laboratory, where the formulas are not degraded through the effects of abrasion, exudation, sunlight, temperature or even swimming in the sea. […] The tests are carried out on female Aedes aegypti mosquitoes aged 6 to 10 days having undergone a prior 24-hour period of fasting (no blood meal) in order to increase their aggressiveness. […] 30 minutes after product application, the mouse is introduced into a cage containing approximately 200 female mosquitoes (prior removal of the males using a food gradient). The test lasts 5 minutes and during this period the number of mosquitoes having landed on the mouse (“landing” effect: number of mosquitoes that land on the treated area and leave without biting) and the number of effective bites, are recorded. The test is stopped after 5 effective bites (“stop” in the Tables below). […] Based on the outcome of the first repetition, repetitions are performed at time intervals of 30 minutes in order to provide a more accurate limit for the duration of protection. During and between the runs, the mice are maintained in a “tropical” like atmosphere under controlled conditions at 27+/−1° C. and 70+/−5% relative humidity. The cages are changed upon each unit test and placed 3 meters apart. […]

mosquitoes = settings: cited from earlier work

## CCN(CC)C(=O)c1cccc(C)c1 [DEET, N,N-diethyl-3-methylbenzamide]
[1]
  share of a dose absorbed through the skin: 30%
Aedes aegypti [2]
  protection period: more than 5 hours

## Cc1coc2c1C(=O)C[C@@H](C)C2 [evodone, (6S)3-6 dimethyl 6,7 dihydro 5H benzofuran-4-one]
Aedes aegypti [3]
  repellent efficacy compared with DEET: as effective as a concentration of 30% of DEET

## CCC(C)OC(=O)N1CCCCC1CCO (centres unmarked) [icaridin, 1-methylpropylester]
mosquitoes
  concentration with efficacy comparable to that of 30% DEET: 19.2%

## p menthane 3.8 diol [citriodiol]
mosquitoes
  maximum persistence of protection: ≤ 6 h
